Measurements taken from patent publication US20250326859A1, “ANTI-CANCER ANTIBODIES, COMBINATION THERAPIES, AND USES THEREOF” (PRECISION BIOLOGICS, INC., priority 2022, published 2025).

B1: NEO-101: Chimeric NPC-1 antibody, engineered in CHO-DG44 production cell clone 4B7; targets a variant of MUC5AC (protein)
light: QVVLTQSPVIMSASPGEKVTMTCSASSSISYMYWYQQKPGTSPKRWIYDTSKLASGVPARFSGSGSGTSYSLTISNMEAGDAATYYCHQRDSYPWTFGGGTNLEIK
heavy: QVQLKESGPDLVAPSQSLSITCTVSGFSLSKFGVNWVRQPPGKGLEWLGVIWGDGSTSYNSGLISRLSISKENSKSQVFLKLNSLQADDTATYYCVKPGGDYWGHGTSVTVSS

Legend:
[1] = system: lung squamous carcinoma cells; assay: Flow cytometry antigen expression, lung squamous cell carcinoma cell lines; format: binding, human; details: primary antibody at 10 ug/mL; multiple lung squamous cell carcinoma cell lines
Experimental: (§1) FIG. 1. NEO-101, NEO-201 and NEO-301 Antigen Expression by Human Normal and Cancer Cell Lines. NEO-101, NEO-201 and NEO-301 specific antigen expression in various cell lines were detected by Flow Cytometry. Viable cell suspensions were incubated with primary antibody NEO-101, NEO-201 and NEO-301 separately at 10 ug/mL. Human IgG (10 ug/mL) was used as negative control. Goat anti-human IgG (Fc)-phycoerythrin conjugate was used for primary antibody detection; 7-ADD was used for excluding dead cells from analysis. The staining was measured by Flow Cytometry (Guava instrument, Millipore). Median fluorescent intensity (MFI) and % of stained cells was used for determining presence of specific antigen on each cell line.
(§2) Antigen expression in cell lines of various origins were detected by Flow Cytometry. Viable cell suspensions were incubated with primary antibody NEO-101, NEO-201 and NEO-301 separately at 10 ug/mL. Human IgG (10 ug/mL) was used as negative control. Goat anti-human IgG (Fc)-phycoerythrin conjugate was used for primary antibody detection; 7-ADD was used for excluding dead cells from analysis. The staining was measured by Flow Cytometry (Guava instrument, Millipore). Median fluorescent intensity (MFI) and % of stained cells was used for determining presence of specific antigen on each cell line. […]

[2] = system: skin cancer samples; assay: IHC on cancer tissue microarray, skin cancer; format: binding, human; details: biotinylated antibody
Text: (§3) FIG. 2. Immunohistochemistry results from cancer tissue arrays. Immunohistochemistry method (IHC) was used for determining the presence of NEO-101/102, NEO-201 and NEO-301 antigens on paraffin microarrays and tissues. These primary antibodies (NEO-101/NEO-102, NEO-201 and NEO-301) were biotinylated prior to use. Paraffin tissue Microarrays and slides of tissues were reacted with the primary Ab after inactivating endogenous peroxidase and blocking the slides. Staining was detected with streptavidin-horseradish peroxidase conjugate and visualized with chromogen. Biotinylated human IgG1 was used as negative control and mouse anti-human cytokeratin monoclonal antibody was used as positive control. Antibody staining is measured as % and intensity of tumor epithelial cells and luminal secretion within the whole tissue section.
(§4) Immunohistochemistry (IHC) was used for determining the presence of NEO-101/102, NEO-201 and NEO-301 antigens on paraffin microarrays and tissues. These primary antibodies (NEO-101/NEO-102, NEO-201 and NEO-301) were biotinylated prior to use. […] Staining was detected with streptavidin-horseradish peroxidase conjugate and visualized with chromogen. […] Antibody staining was measured as % and intensity of tumor epithelial cells and luminal secretion within the whole tissue section. […]

[3] = system: lung adenocarcinoma cells; assay: Flow cytometry antigen expression, lung adenocarcinoma cell lines; format: binding, human; details: primary antibody at 10 ug/mL; multiple lung adenocarcinoma cell lines
Experimental: as §1, §2

[4] = system: Human tumor xenografts; assay: In vivo localization of radiolabeled antibodies in tumor-bearing mice; set-up: species or system SCID or nude mice; details: 111In or 86Y label, intravenous, paper example in present tense
Text: Antibodies NEO-101, NEO-201, and NEO-301 are radiolabeled by conjugation to either ^111In or ^86Y using the acyclic chelate CHX-A″-DTPA. The conjugation molar ratios are empirically determined. Human tumor xenografts are introduced into SCID or nude mice, including the cell lines identified in FIG. 1 as being reactive with NEO-101, NEO-201, or NEO-301 in cell culture and optionally further cancer cell lines detected to bind those antibodies. Control xenografts non-reactive with these antibodies are also utilized. Following intravenous administration of radiolabeled antibodies in tumor-bearing mice, cell samples are harvested and analyzed. Labeled antibody biodistribution is determined with respect to the tumor and other tissues including liver and kidneys.
Additionally, xenograft bearing mice are subjected to imaging studies including planar gamma-imaging performed at multiple time points to assess the stability of labeled antibody binding to the tumor cells and measure the level of accumulation of radiolabeled antibody in other tissues.

[5] = system: pancreatic cancer samples; assay: IHC on cancer tissue microarray, pancreatic cancer; format: binding, human; details: biotinylated antibody
Text: as §3
(§5) Immunohistochemistry (IHC) was used for determining the presence of NEO-101/102, NEO-201 and NEO-301 antigens on paraffin microarrays and tissues. These primary antibodies (NEO-101/NEO-102, NEO-201 and NEO-301) were biotinylated prior to use. Paraffin tissue microarrays and slides of tissues were reacted with the primary antibody after inactivating endogenous peroxidase and blocking the slides. Staining was detected with streptavidin-horseradish peroxidase conjugate and visualized with chromogen. Biotinylated human IgG1 was used as negative control and mouse anti-human cytokeratin monoclonal antibody was used as positive control. Antibody staining was measured as % and intensity of tumor epithelial cells and luminal secretion within the whole tissue section.
(§6) The cancer cells and normal cells tested were of the following tissue origins: Colon, Pancreas, Lung, Larynx, Prostate, Esophagus, Uterus, Stomach, Skin, Breast, and Ovary.

[6] = system: colon cancer samples; assay: IHC on paraffin tissue sections, colon cancer; format: binding, human; details: biotinylated antibody
Text: as §3, §5, §6

[7] = system: pancreatic cancer samples; assay: IHC on paraffin tissue sections, pancreatic cancer; format: binding, human; details: biotinylated antibody
Text: as §3, §5, §6

[8] = system: uterus cancer samples; assay: IHC on cancer tissue microarray, uterus cancer; format: binding, human; details: biotinylated antibody
Text: as §3, §4

[9] = system: pancreatic adenocarcinoma cells; assay: Flow cytometry antigen expression, pancreatic adenocarcinoma cell lines; format: binding, human; details: primary antibody at 10 ug/mL
Experimental: as §1
(§7) Antigen expression in cell lines of various origins were detected by Flow Cytometry. Viable cell suspensions were incubated with primary antibody NEO-101, NEO-201 and NEO-301 separately at 10 ug/mL. Human IgG (10 ug/mL) was used as negative control. Goat anti-human IgG (Fc)-phycoerythrin conjugate was used for primary antibody detection; 7-ADD was used for excluding dead cells from analysis. The staining was measured by Flow Cytometry (Guava instrument, Millipore). Median fluorescent intensity (MFI) and % of stained cells was used for determining presence of specific antigen on each cell line.
(§8) The cell lines tested included breast cancer cells, cervical squamous carcinoma cells, colorectal adenocarcinoma cells, lung adenocarcinoma cells, lung carcinoma cells, lung squamous carcinoma cells, myelogenous leukemia cells, ovarian cancer cells, pancreatic adenocarcinoma cells, pancreatic carcinoma cells, prostate adenocarcinoma cells, and prostate cancer cells. Additionally, normal lung cells were tested.

[10] = system: lung cancer samples; assay: IHC on paraffin tissue sections, lung cancer; format: binding, human; details: biotinylated antibody, relatively fewer samples tested
Text: as §3, §4

[11] = system: colorectal adenocarcinoma cells; assay: Flow cytometry antigen expression, colorectal adenocarcinoma cell lines; format: binding, human; details: primary antibody at 10 ug/mL; multiple colorectal adenocarcinoma cell lines
Experimental: as §1, §7, §8

[12] = system: lung cancer samples; assay: IHC on cancer tissue microarray, lung cancer; format: binding, human; details: biotinylated antibody
Text: as §3, §4

[13] = system: colon cancer samples; assay: IHC on cancer tissue microarray, colon cancer; format: binding, human; details: biotinylated antibody
Text: as §3, §5, §6

[14] = system: breast cancer samples; assay: IHC on cancer tissue microarray, breast cancer; format: binding, human; details: biotinylated antibody
Text: as §3, §4

[15] = system: esophagus cancer samples; assay: IHC on cancer tissue microarray, esophagus cancer; format: binding, human; details: biotinylated antibody
Text: as §3, §4

[16] = system: stomach cancer samples; assay: IHC on cancer tissue microarray, stomach cancer; format: binding, human; details: biotinylated antibody
Text: as §3, §4

Molecule | antigen expression detected by flow cytometry [1] | cancer samples positive for the antigen [2] | antigen expression detected by flow cytometry [3] | binding of radiolabeled antibody to its antigen in vivo [4] | cancer samples positive for the antigen [5] | cancer samples positive for the antigen [6] | cancer samples positive for the antigen [7] | cancer samples positive for the antigen [8] | antigen expression detected by flow cytometry [9] | cancer samples positive for the antigen [10] | antigen expression detected by flow cytometry [11] | cancer samples positive for the antigen [12] | cancer samples positive for the antigen [13] | cancer samples positive for the antigen [14] | cancer samples positive for the antigen [15] | cancer samples positive for the antigen [16]
NEO-201: Humanized 16C3 antibody; binds epitopes in CEACAM5 and CEACAM6 | detected | 16% | detected | able to bind their respective antigens | 86% | 94% | 83% | 51% | detected | 90% | detected | 61% | 85% |  |  | 
NEO-301: Chimeric 31.1 antibody, 2 amino acid changes in HC constant domain, produced in high titer CHO-S cells; binds A33 antigen |  |  |  | able to bind their respective antigens | 57% | 52% | 47% |  | detected |  | detected | 56% | 87% | 78% | 43% | 
B1 |  |  |  | able to bind their respective antigens | 31% | 87% | 82% | 41% | detected | 67% | detected |  | 61% |  |  | 30%
